In brackets after ≈: the same amount, converted by molar mass. Read-outs that look alike come from different tables or passages of the source.
Tests used:
H460 (lung carcinoma) = assay: Antiproliferative activity in vitro, MTT assay, 72 h; type: cell-based; conditions: Homo sapiens, NCI-H460, 72 h incubation
Experimental: (§1) The experiments were carried out on four human cell lines which are derived from three cancer types: H460 (lung carcinoma), HCT 116 (colorectal carcinoma), MCF-7 (human breast cancer) and the non-cancerous cell line HEK 293 (human embryonic kidney).
(§2) The results are compared with the known antiproliferative agents doxorubicin and etoposide. […] Therefore, it is not clear whether the observed antiproliferative activity is due to the biological activity of the compounds or to precipitation.
(§3) The experiments were performed on four human cell lines, including HCT 116 (colon carcinoma), H 460 (lung carcinoma), MCF-7 (breast carcinoma) and HEK 293 (human embryonic kidney cells), in line with previously published experimental procedures. Briefly, the cells were grown in DMEM medium with the addition of 10% fetal bovine serum (FBS), 2 mM of L-glutamine, 100 U/mL of penicillin and 100 µg/mL of streptomycin and cultured as monolayers at 37 °C in a humidified atmosphere with 5% CO2. Cells were seeded at 2 × 10^3 cells/well in standard 96-well microtiter plates and left to attach for 24 h. The next day, a test compound was added in five serial 10-fold dilutions. The rate of cell growth was evaluated after 72 h of incubation with MTT assays. […] Each test was performed in quadruplicate in at least two individual experiments.

[1] = test system: HCT 116 (colorectal carcinoma); assay: as above; type: cell-based; conditions: Homo sapiens, 72 h incubation, '-' with footnote a = did not show biological activity due to precipitation
Experimental: as §1, §2, §3

[2] = test system: MCF-7 (human breast cancer); assay: as above; type: cell-based; conditions: MCF7, 72 h incubation
Experimental: as §1, §2, §3

[3] = test system: HEK 293 (human embryonic kidney); assay: Antiproliferative activity in vitro, MTT assay, 72 h, non-cancerous cell line; type: cell-based; conditions: HEK293, 72 h incubation, '-' with footnote a = did not show biological activity due to precipitation
Experimental: as §1, §2, §3

[4] = Ferric reducing/antioxidant power (FRAP assay); parameters: FRAP: unit not given here; conditions: for FRAP: Fe2+ equivalents, triplicate; for FRAP ferric reducing/antioxidant power, in words: compared to the standard BHT
Experimental: (§4) The synthesized benzazole acrylonitrile derivatives were screened for their antioxidative potency by using in vitro assays, namely DPPH and ABTS as free radical scavenging assays and FRAP as a ferric reducing/antioxidant power assay.
The antioxidant activity of a substance is directly related to its reducing power.
The FRAP method was carried out according to previously described procedures with some modifications to make it compatible with an assay on a 96-well microplate. All results were expressed as Fe^2+ equivalents (Fe^2+ µmol). Ferrous sulphate (FeSO4 × 7H2O) was used to develop a standard curve of 20–2000 µmol/l for the FRAP test.

[5] = DPPH free radical scavenging assay; conditions: compared to the standard BHT
From the text: as §4
The well-known antioxidant butylated hydroxytoluene (BHT) was used as a standard for comparing activity during testing. The DPPH assay is a standard commonly used test for the in vitro assessment of the antioxidant capacity of novel compounds by using their ability to scavenge the stable radical 1,1-diphenyl-picrylhydrazyl. […] Another test used to evaluate the antioxidative capacity of novel compounds was the ABTS test, by which their activity was evaluated by scavenging the stable radical 3-ethylbenzthiazoline-6-sulphonic acid.
Determination of the reducing activity of the stable radical 1,1-diphenyl-picrylhydrazyl (DPPH):
The reducing activity of the investigated systems was measured by the DPPH method according to previously described procedures with modifications to ensure their use on a 96-well microplate. Briefly, equal volumes of various concentrations of the tested molecules (dissolved in DMSO) were added to a solution of DPPH (final concentration of 50 µM in absolute ethanol). Ethanol and DMSO were used as control solutions in line with earlier reports. The radical scavenging activity was calculated using the following formula:[(A517 control − A517 compound)/A517 control] × 100.
The IC50 values were calculated from dose–response curves using nonlinear regression analysis with the GraphPad Prism 8 Ink. program. All measurements were carried out in triplicate.

HCT 116 cells = assay: Antioxidative activity assay in cells (ROS level, DCFH-DA fluorescence); type: cell-based, human; conditions: HCT 116, TBHP 100 µM plus 10 µM compound, 1 h, compared to NAC
From the text: We further selected compounds 9, 10, 32 and 36, showing quite pronounced antioxidant capacity in the DPPH and FRAP assays, in order to test their pro- and antioxidant activity in tumor cells. In order to test the antioxidant activity of the selected compounds in tumor cells (Figure 2), we treated HCT 116 cells with tert-butyl hydroperoxide (TBHP), a substance commonly used for inducing oxidative stress in cells and tissues, alone or in combination with a known antioxidative agent, N-acetyl-L-cysteine (NAC), or the tested compounds. We measured the formation of oxidative stress byproducts using 2′,7′-dichlorodihydrofluorescein diacetate (DCFH-DA).
For the antioxidative activity assay, 2.5 × 10^4 cells were seeded into 96-well microtiter plates and left to attach for 24 h. The next day, cells were washed with PBS and incubated in FBS-free DMEM medium with 25 µM of DCFH-DA fluorescence dye. After 45 min of incubation, the medium was discarded, and the cells were washed with PBS.
After the washing step, the cells were incubated with 100 µM of tert-butyl hydroperoxide (TBHP) alone or in combination with antioxidative agents (50 mM of N-Acetyl-L-cysteine-NAC or 10 µM of the tested compounds) in PBS for 1 h at 37 °C. DCFH-DA fluorescence was recorded on a microplate fluorimeter reader (Tecan) with an excitation beam of 485 nm, while the emitted fluorescence was collected at 535 nm. All tests were presented as the means of two independent measurements carried out in triplicate. One-way ANOVA with Tukey’s post hoc test was used for statistical analysis: *—p < 0.05; **—p < 0.01; ***—p < 0.001.
Figure 2 Antioxidative activity of selected systems. HCT 116 cells were treated with a combination of H2O2 (4 mM) and N-acetyl-L-cysteine (NAC, 10 mM) or the tested compounds (10 mM). Treatment with H2O2 (4 mM) alone was used as a control for ROS induction. The level of reactive oxygen species (ROS) was measured with the fluorescent dye DCFH-DA using a fluorimeter. The data presented here are the results of three independent measurements carried out in triplicate. A one-way ANOVA with Tukey’s post hoc test was used for statistical analysis, *** p < 0.001; ns—not significant.

S. aureus ATCC 29213 = assay: Antibacterial activity in vitro, broth microdilution MIC; type: cell-based, Staphylococcus aureus; conditions: for MIC S. aureus ATCC 29213: broth microdilution, 16–24 h at 37 °C, unit inferred
Experimental: (§5) The in vitro antibacterial activity of the synthesized benzamides 7–12 and 31–37 was evaluated against a panel of eight different bacterial strains. The Gram-positive bacterial strains comprised S. aureus, S. pneumoniae and E. faecalis, and the panel of Gram-negative bacteria consisted of E. coli, K. pneumoniae, A. baumannii and P. aeruginosa.
(§6) The selected bacterial strains were Gram-negative Escherichia coli (ATCC 25922) and Gram-positive Staphylococcus aureus (ATCC 29213) and S. Pneumoniae (ATCC 49619). The Saccharomyces cerevisiae ATCC 7752 strain was tested as a eukaryotic model organism. Synthesized compounds were prepared as 10 mM DMSO solutions and tested in a final concentration range of 100–0.2 µM [39].
(§7) Broth microdilution testing was performed according to CLSI (Clinical Laboratory Standards Institute) guidelines. The MIC (minimal inhibitory concentration) value was defined as the last tested concentration of a compound at which there is no visible growth of bacteria. Inoculums for each microorganism were prepared using the direct colony suspension method, where broth solutions that achieved turbidity equivalent to 0.5 McFarland standards were additionally diluted 100× with cation-adjusted MH media (Becton Dickinson). All test plates were incubated for 16–24 h at 37 °C.

A. baumannii ATCC 17978 = assay: as above; type: cell-based; conditions: 16–24 h at 37 °C, unit inferred
Experimental: as §5, §6, §7

E. faecalis ATCC 29212 = assay: as above; type: cell-based; conditions: for MIC E. faecalis ATCC 29212: broth microdilution, 16–24 h at 37 °C, unit inferred
Experimental: as §5, §6, §7

P. aeruginosa ATCC 27853 = assay: as above; type: cell-based; conditions: 16–24 h at 37 °C, unit inferred
Experimental: as §5, §6, §7

E. coli ATCC 25922 = assay: as above; type: cell-based, Escherichia coli; conditions: 16–24 h at 37 °C, unit inferred
Experimental: as §5, §6, §7

E. coli efflux del. = assay: microbe, parasite or virus in culture; type: cell-based, Escherichia coli; conditions: broth microdilution, 16–24 h at 37 °C; unit inferred
Experimental: as §5, §6, §7

[6] = test system: H460, HCT 116, MCF-7, HEK 293; assay: Antiproliferative activity in vitro, MTT assay, range over the tested cell lines; type: cell-based, human; conditions: read-out: IC50 range against the tested cell lines
Experimental: as §1, §2, §3

| SMILES | IC50 (H460 (lung carcinoma)) [µM] | IC50 [1] [µM] | IC50 [2] [µM] | IC50 [3] [µM] | FRAP [4] | FRAP ferric reducing/antioxidant power, in words [4] | DPPH free radical scavenging activity, in words [5] | Level of ROS in cells under induced oxidative stress (HCT 116 cells) | MIC S. aureus ATCC 29213 (S. aureus ATCC 29213) [µM] | MIC A. baumannii ATCC 17978 (A. baumannii ATCC 17978) [µM] | MIC E. faecalis ATCC 29212 (E. faecalis ATCC 29212) [µM] | MIC P. aeruginosa ATCC 27853 (P. aeruginosa ATCC 27853) [µM] | MIC E. coli ATCC 25922 (E. coli ATCC 25922) [µM] | MIC E. coli efflux del. (E. coli efflux del.) [µM] | IC50 ([6]; Homo sapiens) [µM] | IC50 [6] [µM] | Selectivity of antibacterial activity, in words (E. faecalis ATCC 29212; against the Gram-positive strain E. faecalis) | melting point [°C] | MIC (S. aureus ATCC 29213; Staphylococcus aureus, ATCC29213, read-out: MIC S. aureus) [µM] |
| --- | --- | --- | --- | --- | --- | --- | --- | --- | --- | --- | --- | --- | --- | --- | --- | --- | --- | --- | --- |
| Cn1c(NC(=O)c2cc(O)c(O)c(O)c2)nc2ccccc21 [Compound 9, 3,4,5-trihydroxy-N-(1-methyl-1H-benzo[d]imidazol-2-yl)benzamide] | > 100 | > 100 | 35.5 ± 5.2 | 32.3 ± 6.5 | 4036.77 ± 8.82 | excellent in vitro antioxidant activity | significantly improved | reducing the level of ROS in the cells | 64 (≈ 19.2 µg/mL) | > 64 | 64 (≈ 19.2 µg/mL) | > 64 | > 64 | > 64 |  |  |  |  |  |
| COc1ccc(C(=O)Nc2nc3cc(C#N)ccc3n2CC(C)C)c(O)c1 [Compound 10, N-(5-cyano-1-isobutyl-1H-benzo[d]imidazol-2-yl)-2-hydroxy-4-methoxybenzamide] | 4.4 ± 0.4 | 3.9 ± 0.4 | 2.2 ± 0.9 | 4.4 ± 0.3 | 123.61 ± 2.52 |  |  | did not effectively scavenge ROS | > 64 | > 64 | > 64 | > 64 | > 64 | > 64 | 2.2 to 4.4 | 1.2 to 5.3 |  |  |  |
| Cn1c(NC(=O)c2ccccc2O)nc2cc(C#N)ccc21 [Compound 11, N-(5-cyano-1-methyl-1H-benzo[d]imidazol-2-yl)-2-hydroxybenzamide] | > 100 | 3.7 ± 0.04 | 1.2 ± 0.3 | 5.3 ± 0.6 | 422.55 ± 8.82 |  |  |  | > 64 | > 64 | 32 (≈ 9.35 µg/mL) | > 64 | > 64 | > 64 | 1.2 to 5.3 |  | selective antibacterial activity |  |  |
| O=C(Nc1nc2ccccc2[nH]1)c1cc(O)c(O)c(O)c1 [Compound 32, N-(1H-benzo[d]imidazol-2-yl)-3,4,5-trihydroxybenzamide] | > 100 | > 100 | 39.8 ± 1.4 | 66 ± 1.7 | 3245.79 ± 16.38 | excellent in vitro antioxidant activity | significantly improved | reducing the level of ROS in the cells | > 64 | > 64 | > 64 | > 64 | > 64 | > 64 |  |  |  | 230 to 234 |  |
| Cn1c(NC(=O)c2cc(O)c(O)c(O)c2)nc2cc(C#N)ccc21 [Compound 36, N-(5-cyano-1-methyl-1H-benzo[d]imidazol-2-yl)-3,4,5-trihydroxybenzamide] | 48.3 ± 10.5 | 19.3 ± 6.4 | 4.8 ± 0.7 | 25.3 ± 0.7 | 2396.01 ± 35.27 | excellent in vitro antioxidant activity | significantly improved | reducing the level of ROS in the cells | 32 (≈ 10.4 µg/mL) | > 64 | 64 (≈ 20.8 µg/mL) | > 64 | > 64 | > 64 |  |  |  | 245 to 251 | 32 (≈ 10.4 µg/mL) |
